From patent publication US20060246117A1, “Animal husbandry method for administering a vitamin E derivative and formulation” (ADISSEO FRANCE S.A.S., priority 2003, published 2006)

Assays:
[1] = Vitamin E levels in liver and muscle of piglets (Example 13); details: points at 20 IU/kg and 150 IU/kg
Description: (§1) R1: Basal diet+20 IU/kg standard Vit E (in the form of dl-α-tocopheryl acetate)
R2: Control+150 IU/kg standard Vit E
(§2) Thirty crossbred weanling piglets (8.0 kg live weight) were divided into three groups (R1, R2, R3), kept individually and distributed according to a completely randomized block design. The piglets were fed ad libitum for 14 days on a corn-wheat based diet (Table 11). The diet was supplemented with either 20 IU/kg (R1) or 150 IU/kg (R2) standard DL-α-tocopheryl acetate. […] On day 15 of the experiment the animals were slaughtered and their liver dissected, immediately frozen under liquid nitrogen and ground to powder. Muscle samples (muscularis glutaeus maximus) of about 9 cm2 were obtained from the left hind leg and frozen immediately. The vitamin E content of the samples was determined by HPLC (Castan et al. 2005) and data were statistically analysed using one-way ANOVA.

[2] = in vivo
Description: as §1
R2: Control+150 IU/kg standard Vit E
as §2

[3] = Vitamin E levels in egg yolks of laying hens (Example 11); format: in vivo, ISA brown laying hens; details: supplementation level of 100 mg/kg feed
Description: Forty ISA brown laying hens, 23 weeks of age, were equally divided into 4 groups and individually housed in cages. The animals received the meal experimental diets (R1-R4) ad libitum for 21 days. The eggs layed on D20 to 21 were collected, weighed and stored at +4° C. The vitamin E levels in the egg yolk were determined by HPLC according to the method by […] et al. (2005). Data were analysed using the ANOVA procedure of Statview.

[4] = Plasma and liver vitamin E levels of broilers fed graded doses (Example 10); format: in vivo, Ross male broiler chicks; details: d35, diets fed d15 to d34
Description: R3: Control+120 IU/kg standard Vit E
R4: Control+200 IU/kg standard Vit E
Three hundred Ross male broiler chicks were divided into 6 groups and housed in 6 pens. From d0 to d14, all animals were fed the same, vitamin E free, basal diet.
The animals received the pelleted experimental diets (R1-R6) ad libitum from d15 to d34. On d35, 15 broilers per treatment, which were closest to the mean body weight, were selected. Plasma samples were collected by intracardiac puncture. Birds were then slaughtered by pentobarbital injection. Livers were dissected, deep frozen in liquid nitrogen and immediately ground. The vitamin E levels in plasma or livers were determined by HPLC according to the method by Castan et al. (2005). Data were analysed using the ANOVA procedure of Statview.

[5] = Release of Tac from its silica support (Example 4); format: physicochemical; details: 2.5 hours, 38° C., Tac on silica
Description: The present example tests the effect of an emulsifier according to the invention, i.e. SMO (sorbitan monooleate), on the release of Tac which is attached to silica. To this end, use is made of Tac on a silica support, in a ratio by weight of 1:1, for the assay without emulsifier, and of Tac+emulsifier (SMO) on silica in a ratio by weight of 50:5:45.
10 g of Tac (where appropriate +SMO) on the above silica (that is a final concentration of Tac of 10 mM) are incubated for 2.5 hours, while stirring and at 38° C., under different pH conditions in the following solutions:
either 35 mM phosphate, pH 6.5, 0.15 mM NaCl
or 35 mM HCl/glycine, pH 2.5

CaCo-2 = test: Absorption of Tol and Tac by CaCo-2 cells in M20 medium, one hour at 37° C., non-ethoxylated versus ethoxylated emulsifiers (Example 3); format: in vitro ADME
Description: Absorption assays are carried out, using the same cell line as that described above, by incubating the cells for 3 hours in a physiological medium which is similar to the intestinal medium and which contains cholesterol ester hydrolase (CEH), the pancreatic enzyme which hydrolyzes the Tac into vitamin E in the animal, and sodium taurocholate, which represents the bile salts. This medium comes in the form of an oil-in-water emulsion, i.e. in the form of micelles, and is commercially identified under the reference M20. The Tac, and, where appropriate, the emulsifier being tested, are placed in this medium. The concentration, in vitamin E equivalent, which is introduced into each well in the form of Tac is 156 μM.
The general experimental conditions of the protocol described in Example 2, 2.1) are identical apart from the fact that the area of the wells and the concentration of Tac introduced into the M20 medium differ. The area of the wells is 6.5 cm^2 and the concentration of Tac is 23.7 μM/cm^2.
Four experiments are carried out, with each being repeated three times, using a protocol which comprises one hour of incubation at 37° C., as follows: • 1) M20 on its own, at the rate of 2 mM; the Tac is therefore on its own without emulsifier; • 2) M20+SML (sorbitan monolaurate) emulsifier • 3) M20+SMP (sorbitan monopalmitate) emulsifier • 4) M20+ESML (ethoxylated sorbitan monolaurate)
In the case of each of the assays 2), 3) and 4), the ratio by weight of the added emulsifier to the Tac (in vitamin E equivalent) is 1:6.9.
Four experiments are carried out, with each being repeated three times, using a protocol which comprises one hour of incubation at 37° C., as follows: • 1) M20 on its own; the Tac is therefore on its own without emulsifier; • 2) M20+SML (sorbitan monolaurate) emulsifier • 3) M20+SMP (sorbitan monopalmitate) emulsifier • 4) M20+MOSE (ethoxylated sorbitan monooleate)

[6] = Plasma vitamin E level of piglets after intraduodenal infusion (Example 9); format: in vivo; details: 800 IU single bolus intraduodenally; pooled samples 4-24 h postprandially
Description: In order to exclude gastric influences or impacts of the carrier, the emulsifier of the invention was intraduodenally infused in liquid form (oil).
Three weaning piglets (initial BW 12 kg) were surgically fitted with a silicon catheter in the jugular vein as well as with a silicon cannula in the proximal duodenum according to the procedure described by Thaela et al. (1995).
A standard weaner diet without vitamin E supplementation was fed to the piglets. The animals were fed a daily feed allowance corresponding to 2.0×W^0.75, distributed twice in equal meals (08.00 h and 16.00). The animals were adapted for 7d to the basal diet. […] 2 treatments×3 piglets×2 repetitions (cross-over)
R1: 800 IU Vitamin E standard oil, infused as a single bolus intraduodenally
Blood samples were taken 4, 8, 12, 16, 20 and 24 h postprandially, plasma was obtained and samples were pooled. After the experiment, the animals were newly adapted to the basal diet for 7d before the 2nd repetition was done accordingly. The vitamin E content in the plasma was determined by HPLC according to the method by Castan et al. (2005). Data were analysed using the ANOVA procedure of Statview.

[7] = biological target: T1, cholesterol ester hydrolase (Homo sapiens, UniProt P19835); test: Tac hydrolysis in M40 micelle above CaCo-2 cells, 2 hours (Example 8.2); format: in vitro ADME; details: Tac 67 nmol/cm^2; Tac/emulsifier ratio 100/1; 2 hours at 37° C.
T1 sequence (P19835 21-753): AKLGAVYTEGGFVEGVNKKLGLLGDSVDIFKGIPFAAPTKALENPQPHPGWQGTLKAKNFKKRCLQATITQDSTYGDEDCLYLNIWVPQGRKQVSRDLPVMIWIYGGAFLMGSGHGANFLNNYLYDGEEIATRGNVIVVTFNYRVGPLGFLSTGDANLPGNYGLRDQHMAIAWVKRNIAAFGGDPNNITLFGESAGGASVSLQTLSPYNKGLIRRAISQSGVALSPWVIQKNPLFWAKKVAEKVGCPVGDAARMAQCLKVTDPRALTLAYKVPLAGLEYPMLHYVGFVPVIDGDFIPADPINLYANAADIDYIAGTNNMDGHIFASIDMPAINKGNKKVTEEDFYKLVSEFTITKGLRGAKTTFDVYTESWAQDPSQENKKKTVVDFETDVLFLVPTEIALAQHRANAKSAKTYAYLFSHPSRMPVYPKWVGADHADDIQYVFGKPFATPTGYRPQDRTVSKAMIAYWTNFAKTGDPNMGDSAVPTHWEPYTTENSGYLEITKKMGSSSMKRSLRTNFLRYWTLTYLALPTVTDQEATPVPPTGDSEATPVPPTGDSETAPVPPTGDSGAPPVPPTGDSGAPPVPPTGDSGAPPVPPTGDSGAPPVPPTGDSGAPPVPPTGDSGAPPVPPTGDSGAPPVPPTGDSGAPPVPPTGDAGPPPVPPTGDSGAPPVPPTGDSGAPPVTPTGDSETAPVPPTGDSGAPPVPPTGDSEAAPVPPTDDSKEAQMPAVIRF
Description: The conditions under which the tests are carried out are as follows: • Cell model: CaCo-2 cells • Area of the wells: 4.2 cm^2 • Quantity of Tac: 67 nmol/cm^2 • Solution employed: M40 micelle in accordance with Mathias et al.
Treatments: • A: Without emulsifier • B: With emulsifier (SMP+SMO mixture; ratio 1/1), Tac/emulsifier ratio 100/1
Period of incubation: 2 hours at 37° C.
Analyses: Analysis of Tac in the medium above the cells for the purpose of calculating the degree of hydrolysis.

[8] = Digestibility of vitamin E from faecal excretion in caecectomized cocks (Example 7); format: in vivo; details: treatment 1: Tac 40 mg, no emulsifier
Description: Two series of tests were carried out on caecectomized cocks. The first series comprised 32 cocks while the second comprised 51 cocks. They were fed, by “wet gavage”, with a feed which incorporated Tac (vitamin E acetate) or Tac combined, in different proportions, with one or two alimentary emulsifiers according to the invention. The Tac or the combined Tac was formulated in gelatin capsules, which were obtained by using a pipette to deposit a predetermined quantity of Tac or combined Tac in a capsule half shell and then closing the capsule with the other half shell. 48 hours after the ingestion of feed from a bowl, the faeces are collected and the excretion of the vitamin in this material is determined. To this end, the vitamin E is extracted with a vitamin E solvent, for example hexane, and the quantity extracted is then determined by HPLC chromatography. The proportion of vitamin E which has been digested is deduced from the proportion which has been excreted.

[9] = oral route, animals; cited from earlier work
[10] = test system: cholesterol ester hydrolase (pancreatin); test: Combined release of Tac from silica support and hydrolysis of the released Tac to Tol (Example 6); format: in vitro ADME
Description: The present example tests the effect of an emulsifier according to the invention, i.e. SMO (sorbitan monooleate). For this purpose, use is made of Tac on a silica support, in a ratio by weight of 1:1, for the assay without emulsifier, and of Tac+emulsifier (SMO) on silica, in a ratio by weight of 50:5:45.
8 mg of Tac (where appropriate +SMO) on the above silica (that is a final concentration of Tac of 16.9 μM) are incubated for 3 hours, while stirring and at 37° C., in the following solutions:
35 mM phosphate, pH 6.5, […] NaCl, pancreatin (2 mg) and bile salts (20 mM).
Before incubating, and after 1 hour and 3 hours, respectively, of incubation under the aforementioned conditions, the concentration of vitamin E in the solution is measured in comparison with the initial quantity of Tac.

[11] = Example 3.2, emulsifier:Tac 1:6.9
[12] = Example 3.3, emulsifier:Tac 1:6.9

**Q.** Which “slope of the regression curve for vitamin E contents in livers” value [1] does the source give for `CC(=O)Oc1c(C)c(C)c2c(c1C)CC[C@@](C)(CCC[C@H](C)CCC[C@H](C)CCCC(C)C)O2` [Tac, d,l-α-tocopheryl acetate] here?
**A.** 1.89

**Q.** What about the “slope of the regression curve for vitamin E contents in muscle samples” value [1] of the same molecule?
**A.** 0.89

**Q.** What about the “increase of vitamin E content in liver as compared to piglets fed 20 IU/kg DL-α-tocopheryl acetate” value [2] of the same molecule?
**A.** 51%

**Q.** And the “increase of vitamin E content in muscle as compared to piglets fed 20 IU/kg DL-α-tocopheryl acetate” value [2]?
**A.** 35%

**Q.** And the “total vitamin E content of the yolk” value [3]?
**A.** 4.07 mg

**Q.** What about the “slope of the curve of liver vitamin E level versus dietary dose” value ([4]; liver) of the same molecule?
**A.** 0.1896

**Q.** And the “slope of the curve of plasma vitamin E level versus dietary dose” value ([4]; plasma)?
**A.** 0.1211

**Q.** What about the “% of vitamin E released at pH 2.5” value ([5]; 35 mM HCl/glycine, pH 2.5) of the same molecule?
**A.** 46.5%

**Q.** And the “% of vitamin E released at pH 6.5” value ([5]; 35 mM phosphate, pH 6.5)?
**A.** 59.6%

**Q.** What about the “Absorption, Tac” value (CaCo-2; [11]) of the same molecule?
**A.** 1.68 nmol/cm^2

**Q.** What about the “Absorption, Tol” value (CaCo-2; [11]) of the same molecule?
**A.** 1.77 nmol/cm^2

**Q.** And the “Absorption, Vitamin E (Tol + Tac in vitamin E equivalent)” value (CaCo-2; [11])?
**A.** 3.45 nmol/cm^2

**Q.** What about the “Absorption, Tac” value (CaCo-2; [12]) of the same molecule?
**A.** 2.31 nmol/cm^2

**Q.** What about the “Absorption, Tol” value (CaCo-2; [12]) of the same molecule?
**A.** 1.29 nmol/cm^2

**Q.** What about the “Absorption, Vitamin E (Tol + Tac in vitamin E equivalent)” value (CaCo-2; [12]) of the same molecule?
**A.** 3.60 nmol/cm^2

**Q.** And the “overall plasma vitamin E level” value [6]?
**A.** 5.72 nmol/mL

**Q.** And the Tac hydrolysis [7]?
**A.** 9.7%

**Q.** What about the Mean digestibility ([8]; first series, faeces at 48 hours) of the same molecule?
**A.** 24.8%

**Q.** And the Mean digestibility ([8]; second series)?
**A.** 26.1%

**Q.** And the bioavailability [9]?
**A.** ≤ 40%

**Q.** What about the “concentration of vitamin E in the solution in comparison with the initial quantity of Tac” value (“concentration of vitamin E” below) ([10]; time 0 minutes (before incubating)) of the same molecule?
**A.** 1.21

**Q.** And the “concentration of vitamin E” value ([10]; time 60 minutes)?
**A.** 1.30

**Q.** What about the “concentration of vitamin E” value ([10]; time 180 minutes) of the same molecule?
**A.** 5.25

**Q.** Which bioavailability [9] does the source give for `Cc1c(C)c2c(c(C)c1O)CC[C@@](C)(CCC[C@H](C)CCC[C@H](C)CCCC(C)C)O2` [vitamin E, d-α-tocopherol] here?
**A.** ≤ 50%
